How the values were obtained:
Conditions in all cases: 48 h
[1] = system: P12-Ichikawa; test: cell viability relative to DMSO control; higher = less cytotoxic
Summary of the method: (§1)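 In 1536-well plates, 5 μl of leukemia cells were seeded per well: 500 cells/well for NOMO1 or SEM and 1000 cells/well for P12-Ichikawa. Each line had first been adapted for at least four passages in each medium. Library compounds in DMSO were pin-dosed at 11 threefold concentrations between 47 μM and 0.79 nM, and CellTiter-Glo One luminescence was read after 48 h at 37°C. Viability is a per-plate percentage relative to DMSO wells, with cell-free wells as background.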

[2] = system: SEM cells; test: as above
Summary of the method: as §1

[3] = system: NOMO1; test: as above
Summary of the method: as §1

[4] = system: P12-Ichikawa; test: AUC of viability dose-response curve (% viability x log10 dose units); higher = less sensitive
Summary of the method: (§2)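 Medium-adapted leukemia cells in 1536-well plates, at 500 or 1000 cells/well, were incubated for 48 h at 37°C with library compounds in DMSO at 11 threefold doses from 47 μM to 0.79 nM. CellTiter-Glo One luminescence normalised per plate to DMSO and cell-free wells was fitted with a four-parameter log-logistic model over log10 doses. Area under the curve was integrated from this fit by trapezoidal rule, with curves beyond full viability scaled and failed quality-control curves removed.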

[5] = system: SEM cells; test: as above
Summary of the method: as §2

[6] = system: NOMO1; test: as above
Summary of the method: as §2

[7] = HPLM + 10% dialyzed FBS, 0.000781 µM
[8] = HPLM + 10% dialyzed FBS, 0.00234 µM
[9] = HPLM + 10% dialyzed FBS, 0.00702 µM
[10] = HPLM + 10% dialyzed FBS, 0.0211 µM
[11] = HPLM + 10% dialyzed FBS, 0.0632 µM
[12] = HPLM + 10% dialyzed FBS, 0.19 µM
[13] = HPLM + 10% dialyzed FBS, 0.569 µM
[14] = HPLM + 10% dialyzed FBS, 1.71 µM
[15] = HPLM + 10% dialyzed FBS, 5.12 µM
[16] = HPLM + 10% dialyzed FBS, 15.4 µM
[17] = HPLM + 10% dialyzed FBS, 46.1 µM
[18] = RPMI 5 mM glucose + 10% FBS, 0.000781 µM
[19] = RPMI 5 mM glucose + 10% FBS, 0.00234 µM
[20] = RPMI 5 mM glucose + 10% FBS, 0.00702 µM
[21] = RPMI 5 mM glucose + 10% FBS, 0.0211 µM
[22] = RPMI 5 mM glucose + 10% FBS, 0.0632 µM
[23] = RPMI 5 mM glucose + 10% FBS, 0.19 µM
[24] = RPMI 5 mM glucose + 10% FBS, 0.569 µM
[25] = RPMI 5 mM glucose + 10% FBS, 1.71 µM
[26] = RPMI 5 mM glucose + 10% FBS, 5.12 µM
[27] = RPMI 5 mM glucose + 10% FBS, 15.4 µM
[28] = RPMI 5 mM glucose + 10% FBS, 46.1 µM
[29] = RPMI 5 mM glucose + 10% dialyzed FBS, 0.000781 µM
[30] = RPMI 5 mM glucose + 10% dialyzed FBS, 0.00234 µM
[31] = RPMI 5 mM glucose + 10% dialyzed FBS, 0.00702 µM
[32] = RPMI 5 mM glucose + 10% dialyzed FBS, 0.0211 µM
[33] = RPMI 5 mM glucose + 10% dialyzed FBS, 0.0632 µM
[34] = RPMI 5 mM glucose + 10% dialyzed FBS, 0.19 µM
[35] = RPMI 5 mM glucose + 10% dialyzed FBS, 0.569 µM
[36] = RPMI 5 mM glucose + 10% dialyzed FBS, 1.71 µM
[37] = RPMI 5 mM glucose + 10% dialyzed FBS, 5.12 µM
[38] = RPMI 5 mM glucose + 10% dialyzed FBS, 15.4 µM
[39] = RPMI 5 mM glucose + 10% dialyzed FBS, 46.1 µM
[40] = RPMI 5 mM glucose + 10% dialyzed FBS

O=C(Nc1cccnc1)N1CCC(Cc2cccc(Oc3ccc(C(F)(F)F)cn3)c2)CC1
cell viability [1, 7]: 116% | cell viability [1, 8]: 107% | cell viability [1, 9]: 109% | cell viability [1, 10]: 104% | cell viability [1, 11]: 110% | cell viability [1, 12]: 92% | cell viability [1, 13]: 83.1% | cell viability [1, 14]: 76.3% | cell viability [1, 15]: 68.7% | cell viability [1, 16]: 27.1% | cell viability [1, 17]: 15.5% | cell viability [1, 18]: 109% | cell viability [1, 19]: 117% | cell viability [1, 20]: 117% | cell viability [1, 21]: 106% | cell viability [1, 22]: 118% | cell viability [1, 23]: 97.6% | cell viability [1, 24]: 82.2% | cell viability [1, 25]: 64.2% | cell viability [1, 26]: 55.6% | cell viability [1, 27]: 23.5% | cell viability [1, 28]: 10.4% | cell viability [1, 29]: 108% | cell viability [1, 30]: 108% | cell viability [1, 31]: 113% | cell viability [1, 32]: 114% | cell viability [1, 33]: 103% | cell viability [1, 34]: 88.4% | cell viability [1, 35]: 81.1% | cell viability [1, 36]: 62.6% | cell viability [1, 37]: 50.4% | cell viability [1, 38]: 29.3% | cell viability [1, 39]: 13.9% | cell viability [2, 7]: 42% | cell viability [2, 8]: 94.2% | cell viability [2, 9]: 83.5% | cell viability [2, 10]: 95.1% | cell viability [2, 11]: 117% | cell viability [2, 12]: 88.7% | cell viability [2, 13]: 94.3% | cell viability [2, 14]: 69.6% | cell viability [2, 15]: 49.3% | cell viability [2, 16]: 11.2% | cell viability [2, 17]: 9% | cell viability [2, 18]: 46.8% | cell viability [2, 19]: 92.7% | cell viability [2, 20]: 81.5% | cell viability [2, 21]: 89.8% | cell viability [2, 22]: 100% | cell viability [2, 23]: 88.4% | cell viability [2, 24]: 64.9% | cell viability [2, 25]: 57.1% | cell viability [2, 26]: 35.8% | cell viability [2, 27]: 6.35% | cell viability [2, 28]: 4.68% | cell viability [2, 29]: 37.7% | cell viability [2, 30]: 91.2% | cell viability [2, 31]: 81.1% | cell viability [2, 32]: 78.1% | cell viability [2, 33]: 98.4% | cell viability [2, 34]: 91.1% | cell viability [2, 35]: 86.9% | cell viability [2, 36]: 58.1% | cell viability [2, 37]: 34.7% | cell viability [2, 38]: 14.4% | cell viability [2, 39]: 8.02% | cell viability [3, 7]: 98.9% | cell viability [3, 8]: 112% | cell viability [3, 9]: 108% | cell viability [3, 10]: 116% | cell viability [3, 11]: 115% | cell viability [3, 12]: 115% | cell viability [3, 13]: 116% | cell viability [3, 14]: 91.4% | cell viability [3, 15]: 81.3% | cell viability [3, 16]: 32.6% | cell viability [3, 17]: 19% | cell viability [3, 18]: 111% | cell viability [3, 19]: 104% | cell viability [3, 20]: 99.7% | cell viability [3, 21]: 98.6% | cell viability [3, 22]: 110% | cell viability [3, 23]: 107% | cell viability [3, 24]: 108% | cell viability [3, 25]: 101% | cell viability [3, 26]: 108% | cell viability [3, 27]: 35.1% | cell viability [3, 28]: 23% | cell viability [3, 29]: 98.2% | cell viability [3, 30]: 103% | cell viability [3, 31]: 92.1% | cell viability [3, 32]: 102% | cell viability [3, 33]: 102% | cell viability [3, 34]: 118% | cell viability [3, 35]: 116% | cell viability [3, 36]: 107% | cell viability [3, 37]: 85.8% | cell viability [3, 38]: 47% | cell viability [3, 39]: 31.5% | AUC of viability dose-response curve ([4]; HPLM + 10% dialyzed FBS): 361 | AUC of viability dose-response curve ([4]; RPMI 5 mM glucose + 10% FBS): 346 | AUC of viability dose-response curve [4, 40]: 344 | AUC of viability dose-response curve ([5]; HPLM + 10% dialyzed FBS): 337 | AUC of viability dose-response curve ([5]; RPMI 5 mM glucose + 10% FBS): 299 | AUC of viability dose-response curve [5, 40]: 303 | AUC of viability dose-response curve ([6]; HPLM + 10% dialyzed FBS): 405 | AUC of viability dose-response curve ([6]; RPMI 5 mM glucose + 10% FBS): 427 | AUC of viability dose-response curve [6, 40]: 425

— the supplement of paper PMC11451515
